Measured values published in US4307036A, “Method for preparing a mixture of stereoisomers of α-cyano-3-phenoxybenzyl 2-(4-substituted-phenyl)isovalerates” (Sumitomo Chemical Company, Limited, priority 1978, dated 1981).
In brackets after ≈: the same amount, converted by molar mass.

Columns and labels:
[1] = reported in literature; cited from earlier work
[2] = tested on: tobacco cut worm (Spodoptera litura); test: Insecticidal activity of fenvalerates on tobacco cut worm, leaf dip, 24 h (Test Example 1); type: in vivo; settings: for Relative Efficacy: Activity of Fenvalerate (common product) was taken as 100; for LC50: Spodoptera litura, foliar, 24 h, read-out: LC50 (concentration required for 50% death); for LC50 / LC50 (concentration required for 50% death): fourth instar larvae, 24 hours, 20% emulsifiable concentrate diluted; for LC50 (concentration required for 50% death): 1440 min
Text: Insecticidal activity of fenvalerates on tobacco cut worm (Spodoptera litura)
Fenvalerate Y obtained in Example 4, fenvalerate Y-rich fenvalerate obtained in Examples 5 and 6 and common fenvalerate were formulated into a 20% emulsifiable concentrate as usual (Composition: above pesticide 20%; xylene 70%; and Sorpol 3005X (a registered trademark of Toho Kagaku Co.) 10%). These emulsifiable concentrates were each diluted with water to a pre-determined concentration, and mixed with a spreader (Shin-Rino, a registered trademark of Nippon Noyaku Co.) of 3,000 times by weight based on the diluted liquor.
(§1) The dried leaves were placed in a plastic cup (diameter 10 cm, height 4 cm) at a rate of 2 leaves/cup, and the fourth instar larvae of tobacco cut worms were liberated therein. The dead and alive were examined after 24 hours and the values of LC50 (concentration required for 50% death) were obtained.
(§2) Experiments of three replications were carried out using 10 larvae per group.

[3] = tested on: housefly (Musca domestica); test: Insecticidal activity of fenvalerates on housefly, topical application, 24 h (Test Example 2); type: in vivo; settings: for Relative Efficacy: Activity of Fenvalerate (common product) was taken as 100; for LD50: CSMA-strain female adults, 0.5 μl to ventral thorax, 24 hours
Description: Insecticidal activity of fenvalerates on housefly (Musca domestica)
(§3) Each pesticide used in Examples 4 and 5 was diluted with acetone to a pre-determined concentration, and 0.5 μl of the solution was applied to the ventral thorax of CSMA-strain housefly female adults by means of a microsyringe. The adults were then liberated in a plastic cup (diameter 11 cm) wherein a bait (3% sugar water) was placed. The dead and alive were examined after 24 hours, and the values of LD50 were obtained.

[4] = tested on: tobacco cut worm (Spodoptera litura); test: Insecticidal activity of difluoromethoxy esters on tobacco cut worm, leaf dip, 24 h (Test Example 7); type: in vivo; settings: foliar, read-out: LC50 (concentration required for 50% death)
Text: Insecticidal activity of α-cyano-3-phenoxybenzyl 2-(4-difluoromethoxyphenyl)isovalerates on tobacco cut worm (Spodoptera litura)
Emulsifiable concentrates of difluoromethoxy ester Y and Y-rich difluoromethoxy ester formulated according to Preparation Example 12 and a 20% emulsifiable concentrate of common difluoromethoxy ester formulated in the same manner were each diluted with water to a predetermined concentration, and mixed with a spreader (Shin-Rino, a registered trademark of Nippon Noyaku Co.) of 3,000 times by weight based on the diluted liquor.
as §1, §2

[5] = Solubility, general statement; type: physicochemical; settings: compared with fenvalerate Aα
[6] = Insecticidal and acaricidal activity, general statements; type: in vivo; settings: diastereomers separated by recrystallization from hexane
[7] = tested on: housefly (Musca domestica); test: Insecticidal activity of methoxy and ethoxy esters on housefly, topical application, 24 h (Test Example 8); type: in vivo; settings: CSMA-strain female adults, 0.5 μl to ventral thorax
Description: Insecticidal activity of S phenylisovalerates (methoxy and ethoxy esters) on housefly (Musca domestica)
as §3, with “Each of S phenylisovalerate Y's and Y-rich S phenylisovalerates obtained” for “Each pesticide used”, “Examples 21 to 24” for “Examples 4”, “and common racemates” for “and 5”

[8] = tested on: Houseflies (Musca domestica Linne); test: Spray test of difluoromethoxy esters on housefly (Test Example 6 A); type: in vivo
Description: (§4) Insecticidal activity of α-cyano-3-phenoxybenzyl 2-(4-difluoromethoxyphenyl)isovalerates on housefly, pea aphid and corn earworm
A. Housefly: Houseflies (Musca domestica Linne) were tested by placing 50 4- to 5-day old houseflies into spray cages and spraying with 0.6 ml of a solution of test compound. After spraying, the flies were anesthetized with CO2 and transferred to a recovery cage containing a milk pad for food. The cages were held for 18-20 hours after which mortality counts were made. Both dead and moribund were counted. The tests were conducted employing several different dosage rates of each test compound.
(§5) In each instance, the toxicity of the compound of the invention was compared to that of a standard pesticide (Parathion), its relative toxicity then being expressed in terms of the relationship between the amount of compound of the invention and the amount of the standard pesticide required to produce the same percentage (50) of mortality in the test insects or acarine. By assigning the standard pesticide an arbitrary rating of 100, the toxicities of the compounds of the invention were expressed in terms of the toxicity indexes, which compares the toxicity of the compounds of the invention with that of the standard pesticide.

[9] = tested on: Pea aphids (Acyrthosiphon pisum Harris); test: Spray test of difluoromethoxy esters on pea aphid (Test Example 6 B); type: in vivo
Description: as §4
B. Pea Aphid: Pea aphids (Acyrthosiphon pisum Harris) were tested by placing about 100 aphids on broad bean plants. The plants were sprayed with dilutions of acetone solution of test compound into water containing an emulsifier and held in containers under laboratory conditions for 18 to 20 hours at which time the living aphids in the containers were counted. The tests were conducted employing several different dosage rates of each test compound.
as §5

[10] = tested on: Corn earworm larvae (Heliothis zea Boddie); test: Spray test of difluoromethoxy esters on corn earworm larvae (Test Example 6 C); type: in vivo
Description: as §4
C. Corn Earworm: Corn earworm larvae (Heliothis zea Boddie) were tested by spraying broad bean plants with dilutions of acetone solution of test compound into water containing an emulsifier. Immediately after spraying, 5 larvae were transferred to each plant and held for 44-46 hours, at which time the dead and moribund larvae were counted. The tests were conducted employing several different dosage rates for each test compound.
as §5

[11] = fourth instar larvae, 24 hours, emulsifiable concentrate diluted
[12] = Parathion = 100, 50% mortality, 18-20 hours, * High Knockdown
[13] = Parathion = 100, 50% mortality, 18 to 20 hours, * High Knockdown
[14] = Parathion = 100, 50% mortality, 44-46 hours, * High Knockdown

For `CC(C)[C@H](C(=O)O[C@H](C#N)c1cccc(Oc2ccccc2)c1)c1ccc(Cl)cc1` [fenvalerate Aα, (S)-α-cyano-3-phenoxybenzyl (S)-2-(4-substituted-phenyl)isovalerate], the “insecticidal and acaricidal activity” value [1] is listed as “the most active stereoisomer of the four”.

In the case of `CC(C)[C@H](C(=O)O[C@H](C#N)c1cccc(Oc2ccccc2)c1)c1ccc(Cl)cc1` (relative stereo) [Example 4], the “Relative Efficacy” value [2] was 195, the LC50 [2] was 3.8 µg/mL (≈ 9.05 µM) and the “Relative Efficacy” value [3] was 207. For the same compound, the LD50 [3] was 0.015 μg/housefly.

For `CC(C)[C@H](C(=O)O[C@H](C#N)c1cccc(Oc2ccccc2)c1)c1ccc(OC(F)F)cc1` (relative stereo) [Difluoromethoxy Ester Y, α-cyano-3-phenoxybenzyl 2-(4-difluoromethoxyphenyl)isovalerate], the LC50 ([4]; 24 h) was 12 µg/mL (≈ 26.6 µM).

In the case of `CC(C)[C@H](C(=O)O[C@H](C#N)c1cccc(Oc2ccccc2)c1)c1ccc(Cl)cc1` (relative stereo) [fenvalerate Y], the solubilities [5] is listed as “greater than those of fenvalerate Aα” and the “insecticidal and acaricidal activity” value [1] is listed as “highly active pesticide”.

With `C#CC(OC(=O)C(c1ccc(Cl)cc1)C(C)C)c1cccc(Oc2ccccc2)c1` (stereo not drawn) [diastereomer (m.p. 51°-52° C.), α-ethynyl-3-phenoxybenzyl 2-(4-chlorophenyl)isovalerate] the insecticidal activity [6] was “higher insecticidal activity”.

Compound `COc1ccc(C(C(=O)OC(C#N)c2cccc(Oc3ccccc3)c2)C(C)C)cc1` (stereo not drawn) [Y-Rich Methoxy Ester, α-cyano-3-phenoxybenzyl 2-(4-methoxyphenyl)isovalerate] has an LD50 [7] of 0.20 μg/housefly.

Compound `COc1ccc(C(C(=O)OC(C#N)c2cccc(Oc3ccccc3)c2)C(C)C)cc1` (racemic) [Common Methoxy Ester (racemate), α-cyano-3-phenoxybenzyl 2-(4-methoxyphenyl)isovalerate] has an LD50 [7] of 0.35 μg/housefly.

With `CC(C)C(C(=O)OC(C#N)c1cccc(Oc2ccccc2)c1)c1ccc(Cl)cc1` (stereo not shown) [Example 6] the “Relative Efficacy” value [2] was 125 and the “LC50 (concentration required for 50% death)” value [2] was 5.9 ppm.

For `CC(C)[C@H](C(=O)O[C@H](C#N)c1cccc(Oc2ccccc2)c1)c1ccc(OC(F)F)cc1` (relative stereo) [Same, Y Isomer Pair, α-cyano-3-phenoxybenzyl 2-(4-difluoromethoxyphenyl)isovalerate], the “Toxicity Index” value ([8]; in vivo) was 1100, the “Toxicity Index” value ([9]; in vivo) was 1273 and the “Toxicity Index” value ([10]; in vivo) was 1544.

In the case of `CC(C)C(C(=O)OC(C#N)c1cccc(Oc2ccccc2)c1)c1ccc(OC(F)F)cc1` (stereo not drawn) [Y-Rich Difluoromethoxy Ester, α-cyano-3-phenoxybenzyl 2-(4-difluoromethoxyphenyl)isovalerate], the LC50 [4, 11] was 14 µg/mL (≈ 31 µM).

For `CC(C)C(C(=O)OC(C#N)c1cccc(Oc2ccccc2)c1)c1ccc(Cl)cc1` (stereo not shown) [Example 5], the “Relative Efficacy” value [2] was 172, the LC50 [2] was 4.3 µg/mL (≈ 10.2 µM) and the “Relative Efficacy” value [3] was 172. It also gave an LD50 [3] of 0.018 μg/housefly.

In the case of `COc1ccc([C@@H](C(=O)O[C@H](C#N)c2cccc(Oc3ccccc3)c2)C(C)C)cc1` (relative stereo) [Methoxy Ester Y, α-cyano-3-phenoxybenzyl 2-(4-methoxyphenyl)isovalerate], the LD50 [7] was 0.17 μg/housefly.

Compound `CCOc1ccc(C(C(=O)OC(C#N)c2cccc(Oc3ccccc3)c2)C(C)C)cc1` (racemic) [Common Ethoxy Ester (racemate), α-cyano-3-phenoxybenzyl 2-(4-ethoxyphenyl)isovalerate] has an LD50 [7] of 0.54 μg/housefly.

For `CC(C)C(C(=O)OC(C#N)c1cccc(Oc2ccccc2)c1)c1ccc(OC(F)F)cc1` (racemic) [Common Difluoromethoxy Ester, α-cyano-3-phenoxybenzyl 2-(4-difluoromethoxyphenyl)isovalerate], the “Toxicity Index” value [8, 12] was 219, the “Toxicity Index” value [9, 13] was 582 and the “Toxicity Index” value [10, 14] was 773. The LC50 [4, 11] was 23 µg/mL (≈ 50.9 µM).

`CCOc1ccc(C(C(=O)OC(C#N)c2cccc(Oc3ccccc3)c2)C(C)C)cc1` (stereo not drawn) [Y-Rich Ethoxy Ester, α-cyano-3-phenoxybenzyl 2-(4-ethoxyphenyl)isovalerate] showed an LD50 [7] of 0.46 μg/housefly.

With `CC(C)[C@H](C(=O)O[C@@H](C#N)c1cccc(Oc2ccccc2)c1)c1ccc(OC(F)F)cc1` (relative stereo) [Same, X Isomer Pair, α-cyano-3-phenoxybenzyl 2-(4-difluoromethoxyphenyl)isovalerate] the “Toxicity Index” value [8, 12] was 47, the “Toxicity Index” value [9, 13] was 45 and the “Toxicity Index” value [10, 14] was 106.

For `CC(C)C(C(=O)OC(C#N)c1cccc(Oc2ccccc2)c1)c1ccc(Cl)cc1` (stereo not drawn) [Fenvalerate (common product), α-Cyano-3-phenoxybenzyl 2-(4-chlorophenyl)isovalerate, reference compound], the “Relative Efficacy” value [2] was 100, the “LC50 (concentration required for 50% death)” value [2] was 7.4 ppm and the “Relative Efficacy” value [3] was 100. The LD50 [3] was 0.031 μg/housefly.

`CCOc1ccc([C@@H](C(=O)O[C@H](C#N)c2cccc(Oc3ccccc3)c2)C(C)C)cc1` (relative stereo) [Ethoxy Ester Y, α-cyano-3-phenoxybenzyl 2-(4-ethoxyphenyl)isovalerate] showed an LD50 [7] of 0.28 μg/housefly.

For `C#CC(OC(=O)C(c1ccc(Cl)cc1)C(C)C)c1cccc(Oc2ccccc2)c1` (stereo not drawn) [diastereomer having a melting point of 87° to 88° C., α-ethynyl-3-phenoxybenzyl 2-(4-chlorophenyl)isovalerate], the insecticidal activity [6] was “very weak insecticidal activity”.
